According to patent US9164102B2, “Methods of screening for TRPM4b modulators” (The Queen's Medical Center, priority 2002, dated 2015):

Molecular target: T1, TRPM4b (Homo sapiens, UniProt Q8TD43)
T1 construct: expressed in transfected cells
Assay: Patch-clamp recordings of TRPM4b currents in HEK-293 cells at buffered intracellular Ca2+
Format: cell-based
Conditions: cytosolic/intracellular Ca2+
Description: Wild type and tetracycline-inducible […] Flag-TRPM4b-expressing cells were cultured at 37° C./5% CO2 in DMEM supplemented with 10% FBS and 2 mM glutamine. The medium was supplemented with blasticidin (5 μg/ml; Invitrogen) and zeocin (0.4 mg/ml; Invitrogen). Cells were resuspended in media containing 1 μg/ml tetracycline (Invitrogen) 24 hours before experiments. For patch-clamp experiments, cells were kept in a standard Ringer's solution (in mM): NaCl 145, KCl 2.8, CaCl2 1, MgCl2 2, glucose 10, Hepes.NaOH 10, pH 7.2. In some experiments, this solution was modified such that all but 1 mM of NaCl was replaced by choline-Cl (choline-based solution). In experiments where ATP was used, it was added at 1 mM of the Mg^2+ salt and extracellular Ca^2+ concentration was raised to 2 mM. The standard pipette-filling solutions contained (in mM): K-glutamate 145, NaCl 8, MgCl2 1, Cs-BAPTA 10, pH 7.2 adjusted with KOH. In some experiments, [Ca^2+]i was buffered to […] by 10 mM BAPTA and appropriate concentrations of CaCl2 or left unbuffered. For inside-out single-channel recordings, the patch was excised into a similar solution, except that KCl was used instead of K-glutamate. All reagents were purchased from Sigma and dissolved in the standard intracellular solution. […] Capacitive currents and series resistance were determined and corrected before each voltage ramp. […]

T1 sequence (Q8TD43 whole entry): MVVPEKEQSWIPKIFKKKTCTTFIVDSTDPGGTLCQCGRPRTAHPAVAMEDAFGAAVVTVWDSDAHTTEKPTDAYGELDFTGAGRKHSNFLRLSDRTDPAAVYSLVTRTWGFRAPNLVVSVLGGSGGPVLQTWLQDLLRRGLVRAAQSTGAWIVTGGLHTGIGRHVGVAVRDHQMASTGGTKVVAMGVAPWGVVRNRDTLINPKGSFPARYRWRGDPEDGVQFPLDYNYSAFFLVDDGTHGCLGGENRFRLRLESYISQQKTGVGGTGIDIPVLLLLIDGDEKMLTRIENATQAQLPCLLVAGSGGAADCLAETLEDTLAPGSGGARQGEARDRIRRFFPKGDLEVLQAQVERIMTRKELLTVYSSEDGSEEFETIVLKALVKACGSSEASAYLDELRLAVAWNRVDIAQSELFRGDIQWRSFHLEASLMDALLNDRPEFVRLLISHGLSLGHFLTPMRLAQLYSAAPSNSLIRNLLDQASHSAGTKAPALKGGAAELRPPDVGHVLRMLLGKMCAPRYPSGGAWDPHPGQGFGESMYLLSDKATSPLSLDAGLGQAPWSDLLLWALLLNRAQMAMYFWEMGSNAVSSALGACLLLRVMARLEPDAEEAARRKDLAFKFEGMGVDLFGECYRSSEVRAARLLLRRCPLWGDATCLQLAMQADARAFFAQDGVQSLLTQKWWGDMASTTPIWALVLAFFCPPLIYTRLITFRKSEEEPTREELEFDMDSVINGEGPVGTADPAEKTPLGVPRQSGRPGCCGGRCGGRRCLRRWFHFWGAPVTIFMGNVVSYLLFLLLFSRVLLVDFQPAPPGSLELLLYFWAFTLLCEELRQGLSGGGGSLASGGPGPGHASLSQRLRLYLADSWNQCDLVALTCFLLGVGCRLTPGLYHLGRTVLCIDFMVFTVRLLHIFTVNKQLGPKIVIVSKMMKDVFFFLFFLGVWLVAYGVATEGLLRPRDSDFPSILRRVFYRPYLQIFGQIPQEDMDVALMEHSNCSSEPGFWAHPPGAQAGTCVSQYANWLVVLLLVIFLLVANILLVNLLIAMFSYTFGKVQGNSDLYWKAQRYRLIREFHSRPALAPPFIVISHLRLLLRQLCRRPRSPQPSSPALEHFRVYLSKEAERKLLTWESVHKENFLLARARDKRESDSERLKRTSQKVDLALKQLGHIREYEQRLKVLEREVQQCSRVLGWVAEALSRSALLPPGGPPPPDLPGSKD

## [Ca+2] [Ca^2+]
  Ca^2+ concentration at which direct gating of the TRPM4b channel appears to begin: ~300 nM
